Reference: ChEMBL document CHEMBL3885861, “Open TG-GATES”

Organism: Rattus norvegicus
Experiment: Open TG-GATES - Regimen: Single
Type: toxicity, organism-based, Sprague-Dawley
Parameters: regimen Single, gender Male, age 6 weeks
Settings: in vivo, po, 100 mg/kg, route gavage, dose level Middle; for APTT / Bas / Eos / Fbg / Hb / Ht / Lym / MCH / MCHC / MCV / Mono / Neu / PT / Plat / RBC / Ret / WBC: tissue Blood; for KIDNEY_L / KIDNEY_R / KIDNEY_TOTAL: tissue Kidney; for LIVER: tissue Liver; for A/G / ALP / ALT / AST / BUN / CRE / Ca / Cl / DBIL / GLC / IP / K / LDH / Na / PL / RALB / TBIL / TC / TG / TP / gamma-GTP: tissue Plasma

What does the source list for `ClC(Cl)(Cl)Cl` [CARBON TETRACHLORIDE]?
TERMINAL_BW (3 h): 207.5 g; APTT (3 h): 20.3 s; Bas (3 h): 0%; Eos (3 h): 1%; Fbg (3 h): 222.4 mg/dL; Hb (3 h): 12.7 g/dL; Ht (3 h): 36.6%; Lym (3 h): 76.4%; MCH (3 h): 21.8 pg; MCHC (3 h): 34.8%; MCV (3 h): 62.7 fL; Mono (3 h): 2.8%; Neu (3 h): 19.8%; PT (3 h): 12.6 s; Plat (3 h): 129.7 x10_4/uL; RBC (3 h): 583.2 x10_4/ul; Ret (3 h): 8.7%; WBC (3 h): 76.6 x10_2/uL; KIDNEY_L (3 h): 0.9 g; KIDNEY_R (3 h): 0.9 g; KIDNEY_TOTAL (3 h): 1.8 g; LIVER (3 h): 9.4 g; A/G (3 h): 1.7; ALP (3 h): 1077.4 IU/L; ALT (3 h): 36.2 IU/L; AST (3 h): 70 IU/L; BUN (3 h): 10.2 mg/dL; CRE (3 h): 0.4 mg/dL; Ca (3 h): 10.8 mg/dL; Cl (3 h): 104.6 meq/L; DBIL (3 h): 0.1 mg/dL; GLC (3 h): 186.4 mg/dL; IP (3 h): 9.4 mg/dL; K (3 h): 3.9 meq/L; LDH (3 h): 156 IU/L; Na (3 h): 140.2 meq/L; PL (3 h): 148.6 mg/dL; RALB (3 h): 3.4 g/dL; TBIL (3 h): 0.2 mg/dL; TC (3 h): 73.6 mg/dL; TG (3 h): 103.8 mg/dL; TP (3 h): 5.4 g/dL; gamma-GTP (3 h): 1.2 IU/L; TERMINAL_BW (6 h): 204.2 g; APTT (6 h): 18 s; Bas (6 h): 0%; Eos (6 h): 1%; Fbg (6 h): 224.8 mg/dL; Hb (6 h): 13.3 g/dL; Ht (6 h): 38.1%; Lym (6 h): 71.2%; MCH (6 h): 21.8 pg; MCHC (6 h): 35%; MCV (6 h): 62.4 fL; Mono (6 h): 3%; Neu (6 h): 24.8%; PT (6 h): 12.7 s; Plat (6 h): 134.8 x10_4/uL; RBC (6 h): 611 x10_4/ul; Ret (6 h): 8.8%; WBC (6 h): 76 x10_2/uL; KIDNEY_L (6 h): 0.9 g; KIDNEY_R (6 h): 0.9 g; KIDNEY_TOTAL (6 h): 1.8 g; LIVER (6 h): 9 g; A/G (6 h): 1.8; ALP (6 h): 913.2 IU/L; ALT (6 h): 35 IU/L; AST (6 h): 65.6 IU/L; BUN (6 h): 11.4 mg/dL; CRE (6 h): 0.4 mg/dL; Ca (6 h): 10.5 mg/dL; Cl (6 h): 104 meq/L; DBIL (6 h): 0.1 mg/dL; GLC (6 h): 190.2 mg/dL; IP (6 h): 10.2 mg/dL; K (6 h): 3.9 meq/L; LDH (6 h): 164.6 IU/L; Na (6 h): 140.2 meq/L; PL (6 h): 154.4 mg/dL; RALB (6 h): 3.5 g/dL; TBIL (6 h): 0.2 mg/dL; TC (6 h): 78.8 mg/dL; TG (6 h): 67.2 mg/dL; TP (6 h): 5.4 g/dL; gamma-GTP (6 h): 1.4 IU/L; TERMINAL_BW (9 h): 205.2 g; APTT (9 h): 18.5 s; Bas (9 h): 0%; Eos (9 h): 0.8%; Fbg (9 h): 229.8 mg/dL; Hb (9 h): 12.9 g/dL; Ht (9 h): 37%; Lym (9 h): 74.2%; MCH (9 h): 21.2 pg; MCHC (9 h): 34.8%; MCV (9 h): 60.8 fL; Mono (9 h): 3%; Neu (9 h): 21.8%; PT (9 h): 12.5 s; Plat (9 h): 125.2 x10_4/uL; RBC (9 h): 610.4 x10_4/ul; Ret (9 h): 8%; WBC (9 h): 72.7 x10_2/uL; KIDNEY_L (9 h): 0.9 g; KIDNEY_R (9 h): 0.9 g; KIDNEY_TOTAL (9 h): 1.8 g; LIVER (9 h): 8.4 g; A/G (9 h): 1.6; ALP (9 h): 848.2 IU/L; ALT (9 h): 28.2 IU/L; AST (9 h): 62.4 IU/L; BUN (9 h): 11.4 mg/dL; CRE (9 h): 0.4 mg/dL; Ca (9 h): 10.5 mg/dL; Cl (9 h): 103.6 meq/L; DBIL (9 h): 0.1 mg/dL; GLC (9 h): 196 mg/dL; IP (9 h): 10.3 mg/dL; K (9 h): 3.7 meq/L; LDH (9 h): 173.2 IU/L; Na (9 h): 140.4 meq/L; PL (9 h): 141.2 mg/dL; RALB (9 h): 3.3 g/dL; TBIL (9 h): 0.2 mg/dL; TC (9 h): 66.6 mg/dL; TG (9 h): 65 mg/dL; TP (9 h): 5.5 g/dL; gamma-GTP (9 h): 0.8 IU/L; TERMINAL_BW (24 h): 210.9 g; APTT (24 h): 18.9 s; Bas (24 h): 0%; Eos (24 h): 1%; Fbg (24 h): 229.8 mg/dL; Hb (24 h): 13.6 g/dL; Ht (24 h): 39.4%; Lym (24 h): 79.4%; MCH (24 h): 21.8 pg; MCHC (24 h): 34.5%; MCV (24 h): 63 fL; Mono (24 h): 3.4%; Neu (24 h): 15.8%; PT (24 h): 12.6 s; Plat (24 h): 126.7 x10_4/uL; RBC (24 h): 625.2 x10_4/ul; Ret (24 h): 8.6%; WBC (24 h): 98.1 x10_2/uL; KIDNEY_L (24 h): 0.9 g; KIDNEY_R (24 h): 0.9 g; KIDNEY_TOTAL (24 h): 1.8 g; LIVER (24 h): 10.1 g; A/G (24 h): 1.7; ALP (24 h): 987 IU/L; ALT (24 h): 38.2 IU/L; AST (24 h): 70.2 IU/L; BUN (24 h): 16.8 mg/dL; CRE (24 h): 0.4 mg/dL; Ca (24 h): 10.8 mg/dL; Cl (24 h): 104.4 meq/L; DBIL (24 h): 0.082 mg/dL; GLC (24 h): 189.4 mg/dL; IP (24 h): 8.1 mg/dL; K (24 h): 4.1 meq/L; LDH (24 h): 280 IU/L; Na (24 h): 140.4 meq/L; PL (24 h): 148.2 mg/dL; RALB (24 h): 3.5 g/dL; TBIL (24 h): 0.1 mg/dL; TC (24 h): 70.4 mg/dL; TG (24 h): 78 mg/dL; TP (24 h): 5.6 g/dL; gamma-GTP (24 h): 1 IU/L
